These results are taken from article PMC11284788, “NN1213 – A Potent, Long-Acting, and Selective Analog of Human Amylin” (Journal of Medicinal Chemistry, 2024).

The target in one test is T1, rAMY3R (Rattus norvegicus, UniProt P32214+Q9JJ73).
T1 sequence (P32214 25-479 isoform P32214-2 limits assumed): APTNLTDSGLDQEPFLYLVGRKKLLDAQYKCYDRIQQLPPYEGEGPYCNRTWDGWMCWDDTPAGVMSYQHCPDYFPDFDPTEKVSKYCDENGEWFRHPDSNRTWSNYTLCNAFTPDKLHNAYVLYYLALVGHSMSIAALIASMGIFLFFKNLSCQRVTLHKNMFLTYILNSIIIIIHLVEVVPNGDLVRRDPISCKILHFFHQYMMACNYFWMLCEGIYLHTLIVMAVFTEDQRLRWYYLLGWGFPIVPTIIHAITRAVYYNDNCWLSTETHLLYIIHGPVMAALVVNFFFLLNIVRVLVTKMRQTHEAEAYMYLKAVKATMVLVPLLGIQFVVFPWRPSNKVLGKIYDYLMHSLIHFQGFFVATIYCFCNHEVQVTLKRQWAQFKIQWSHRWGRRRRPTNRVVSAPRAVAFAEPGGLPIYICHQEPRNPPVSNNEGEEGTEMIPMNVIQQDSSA
T1 sequence (Q9JJ73 23-147 partner): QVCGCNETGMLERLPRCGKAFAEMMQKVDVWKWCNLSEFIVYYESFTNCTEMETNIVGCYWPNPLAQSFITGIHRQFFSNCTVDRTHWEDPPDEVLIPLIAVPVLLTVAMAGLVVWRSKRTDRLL
The test is described as follows: scintillation proximity binding assay, rAMY3R membranes. The arrangement: expressed in transfected cells; host or cells: BHK tk-ts 13, transient co-transfection (FuGENE 6). The conditions noted are these: for ratio rCTR/rAMY3R: ratio of binding IC50 values. As for the experimental part:
(§1) The apparent binding affinities were determined using a scintillation proximity assay with beads from PerkinElmer and cell membranes containing the AMY3R or CTRs. […] Membranes were harvested and membranes were prepared and kept at −80 °C until use. The assay was performed in a 384-well Optiplate (PerkinElmer). Membranes were mixed with scintillation proximity assay beads in a 1:1 ratio. […] Samples were analyzed on a TopCounter (Packard). The IC50 values were calculated using GraphPad Prism. See Supporting Information S7: SAR Screening Assay Methods (Binding Assays (Human and Rat)) for more information.
(§2) Binding Assays (Human and Rat). Brief descriptions of the methods used to determine binding affinities for SAR analysis are described below. Curves and IC50 values were plotted and calculated in GraphPad Prism using nonlinear regression (one site binding competition analysis), with pIC50 values […]
(§3) values were used to calculate the binding affinity ratios in order to express the selectivity of compounds for the AMY3R versus the CTR.
(§4) CTR Binding Assay. The binding assay was performed using scintillation proximity assay (SPA) beads (RPNQ0001) from PerkinElmer and cell membranes containing either the hCTR or rCTR. BHK […]
(§5) Membranes were prepared in the following way: the cells were rinsed with PBS and incubated with Versene for approximately 5 min before harvesting. The cells were flushed with PBS and the cell-suspension was centrifuged for 5 min at 1000 rpm. Cells were homogenized (Ultra Turrax) in a buffer […]
(§6) containing 20 mM Na-HEPES and 0.1 mM EDTA (pH 7.4, buffer 2). The resulting pellet was re-suspended in buffer 2 and protein concentration was measured (BCA protein assay, Pierce). The homogenate was kept cold during the whole procedure. The membranes were stored at –80 °C until […]
(§7) The binding assay was performed in a 384-well Optiplate (PerkinElmer) in a total volume of 40 μL.
(§8) Membranes were mixed with SPA beads in a 1:1 ratio. […]
(§9) mg/well. Test compounds were dissolved in DMSO and further diluted in assay buffer (50 mM HEPES, pH 7.4, 1 mM CaCl2, 5 mM MgCl2, 0.1% ovalbumin, and 0.02% Tween-20).
(§10) Calcitonin (NEX422 PerkinElmer) was dissolved in assay buffer and added to the Optiplate at a final […]
(§11) prior to centrifugation (1500 rpm, 10 min). Samples were analyzed on TopCounter (Packard).
(§12) AMY3R Binding Assay. The binding assay was performed using SPA beads (RPNQ0001) from PerkinElmer and cell membranes containing either the hAMY3R or rAMY3R. BHK tk-ts 13 cells were […]
(§13) and cultured as described above. Membranes were prepared in the following way: the cells were rinsed with PBS and incubated with Versene for approximately 5 min before harvesting. The cells were flushed with PBS and the cell-suspension was centrifuged for 5 min at 1000 rpm. Cells were homogenized (Ultra Turrax) in a buffer containing 20 mM Na-HEPES and 10 mM EDTA (pH 7.4), and […]
(§14) The resulting pellet was re-suspended, homogenized, and
(§15) 7.4, buffer 2). The resulting pellet was re-suspended in buffer 2 and protein concentration was measured (BCA protein assay, Pierce). The homogenate was kept cold during the whole procedure.
(§16) The membranes were stored at –80 °C until use.
(§17) Membranes were mixed with SPA beads in a 1:1 ratio. The final concentration of SPA beads was 0.05 mg/well. Test compounds were dissolved in DMSO and further diluted in assay buffer (50 mM […]
(§18) rAMY (NEX448 PerkinElmer) was dissolved in assay buffer and added to the Optiplate at a final

The target in the next test is T2, hAMY3R (Homo sapiens, UniProt O60896+P30988).
T2 sequence (P30988 25-474): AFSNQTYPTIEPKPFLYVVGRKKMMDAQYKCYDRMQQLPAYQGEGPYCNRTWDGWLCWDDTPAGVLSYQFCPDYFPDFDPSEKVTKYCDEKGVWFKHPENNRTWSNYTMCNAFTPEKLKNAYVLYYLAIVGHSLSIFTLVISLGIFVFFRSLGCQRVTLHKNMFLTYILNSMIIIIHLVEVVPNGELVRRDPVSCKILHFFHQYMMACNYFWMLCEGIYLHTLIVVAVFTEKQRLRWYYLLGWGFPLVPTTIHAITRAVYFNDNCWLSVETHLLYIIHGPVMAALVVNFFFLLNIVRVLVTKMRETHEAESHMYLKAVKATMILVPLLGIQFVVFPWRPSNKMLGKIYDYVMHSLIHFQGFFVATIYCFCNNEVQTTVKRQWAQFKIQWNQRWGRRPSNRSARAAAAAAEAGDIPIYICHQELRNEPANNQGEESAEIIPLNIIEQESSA
T2 sequence (O60896 24-148 partner): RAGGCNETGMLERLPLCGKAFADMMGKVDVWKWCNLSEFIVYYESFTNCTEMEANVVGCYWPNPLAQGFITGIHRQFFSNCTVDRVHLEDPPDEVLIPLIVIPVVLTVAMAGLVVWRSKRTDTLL
Kind of test: scintillation proximity binding assay, hAMY3R membranes. More on the design: expressed in transfected cells; host or cells: BHK tk-ts 13, transient co-transfection; membranes for the SPA, whole cells for the species-specific assays. The conditions noted are these: for ratio hCTR/hAMY3R: ratio of binding IC50 values. As for the experimental part: as §1, §2, §3, §4, §5, §6, §7, §8, §9, §10, §11, §12, §13, §14, §15, §16, §17, §18
Background: SPA uses beads or plates that emit light when radiolabelled molecules are held near them.

Another test concerns rats. The test is described as follows: Acute food intake in rats. It is filed as in vivo, rat.
[1] abbreviates: SPA binding assay, Tables S13 and S15.
Setting [2] is: SPA, BHK cell membranes, 125I-rat amylin, 120 min 25 °C, read-out: rAMY3R IC50.
The mark [3] stands for this setting: SPA, BHK cell membranes, 125I-rat amylin, 120 min 25 °C, read-out: hAMY3R IC50.
[4] abbreviates: single sc injection of 30 nmol/kg, relative to vehicle, mean ± SEM, n = 5–7 per group.

Each structure is given as a SMILES string. Like-named read-outs stand apart in the source and are kept apart here. Numbered stars: 1 amine (or outer) side, 2 acyl side, 3 side chain; on linkers, the order of the positions; unused ones are H or OH. Bridge positions count the residues as written; N and C are the ends. Side chains are listed from the residue outwards. Peptide text beside a SMILES is read from it. * marks the point of attachment. C20 diacid = O=C(O)CCCCCCCCCCCCCCCCCCC(=O)*; γGlu = O=C(O)[C@H](CCC(=O)[*:2])N[*:1]

For `CC[C@H](C)[C@H](NC(=O)[C@H](C)NC(=O)CNC(=O)[C@H](Cc1ccccc1)NC(=O)[C@H](CC(N)=O)NC(=O)[C@@H]1CCCN1C(=O)[C@H](CO)NC(=O)[C@H](CO)NC(=O)[C@H](Cc1c[nH]cn1)NC(=O)[C@H](CCCNC(=N)N)NC(=O)[C@H](CC(C)C)NC(=O)[C@H](Cc1ccccc1)NC(=O)[C@H](CC(=O)O)NC(=O)[C@H](C)NC(=O)[C@H](CC(C)C)NC(=O)[C@H](CCCNC(=N)N)NC(=O)[C@H](CCC(N)=O)NC(=O)[C@@H](NC(=O)[C@H](C)NC(=O)[C@@H]1CSSC[C@H](NC(=O)[C@@H](N)CCCCNC(=O)CC[C@H](NC(=O)CC[C@H](NC(=O)CCCCCCCCCCCCCCCCCCC(=O)O)C(=O)O)C(=O)O)C(=O)N[C@@H](CC(N)=O)C(=O)N[C@@H]([C@@H](C)O)C(=O)N[C@@H](C)C(=O)N[C@@H]([C@@H](C)O)C(=O)N1)[C@@H](C)O)C(=O)N1CCC[C@H]1C(=O)N[C@@H](CO)C(=O)N[C@@H](CO)C(=O)N[C@H](C(=O)N[C@@H](CC(N)=O)C(=O)N[C@H](C(=O)NCC(=O)N[C@@H](CO)C(=O)N[C@@H](CCCNC(=N)N)C(=O)N[C@H](C(=O)N[C@@H](Cc1ccc(O)cc1)C(N)=O)[C@@H](C)O)C(C)C)[C@@H](C)O` [NN1213], the “ratio rCTR/rAMY3R” value at rAMY3R came to 465. The “ratio hCTR/hAMY3R” value on hAMY3R is on record as 74. The “food intake reduction, following 24 h” value with rats (single sc dose 3 nmol/kg, 24–48 h, compared to controls) is 15%. For the same molecule, the “food intake reduction, first 24 h” value stood at 25% in the test with rats (single sc dose 3 nmol/kg, compared to controls) and 70% in the test on rats (single sc dose 100 nmol/kg).
As to `CC[C@H](C)[C@H](NC(=O)[C@H](C)NC(=O)CNC(=O)[C@H](Cc1ccccc1)NC(=O)[C@H](CC(N)=O)NC(=O)[C@@H]1CCCN1C(=O)[C@H](CO)NC(=O)[C@H](CO)NC(=O)[C@H](Cc1c[nH]cn1)NC(=O)[C@H](CCCNC(=N)N)NC(=O)[C@H](CC(C)C)NC(=O)[C@H](Cc1ccccc1)NC(=O)[C@H](CC(N)=O)NC(=O)[C@H](C)NC(=O)[C@H](CC(C)C)NC(=O)[C@H](CCCNC(=N)N)NC(=O)[C@H](CCC(N)=O)NC(=O)[C@@H](NC(=O)[C@H](C)NC(=O)[C@@H]1CSSC[C@H](NC(=O)[C@H](CCCCN)NC(=O)CC[C@H](NC(=O)CCCCCCCCCCCCCCCCCCC(=O)O)C(=O)O)C(=O)N[C@@H](CC(N)=O)C(=O)N[C@@H]([C@@H](C)O)C(=O)N[C@@H](C)C(=O)N[C@@H]([C@@H](C)O)C(=O)N1)[C@@H](C)O)C(=O)N1CCC[C@H]1C(=O)N[C@@H](CO)C(=O)N[C@@H](CO)C(=O)N[C@H](C(=O)N[C@@H](CC(N)=O)C(=O)N[C@H](C(=O)NCC(=O)N[C@@H](CCCNC(=N)N)C(=O)N[C@@H](CC(N)=O)C(=O)N[C@H](C(=O)N[C@@H](Cc1ccc(O)cc1)C(N)=O)[C@@H](C)O)C(C)C)[C@@H](C)O` [Peptide 16], the “rAMY3R pIC50” value at rAMY3R (setting [1]) was 8.75. Besides, the IC50 at rAMY3R (setting [2]) was found to be 1.77 nM. The “ratio rCTR/rAMY3R” value on rAMY3R is listed as 55. In addition, at hAMY3R (setting [1]), the “hAMY3R pIC50” value is reported as 9.18. Besides, the IC50 on hAMY3R (setting [3]) is 0.662 nM. In addition, the “ratio hCTR/hAMY3R” value at hAMY3R came out at 29. Besides, in the test with rats (setting [4]), the “Acute food intake reduction 0–24 h” value is 32 ± 4% and the “Acute food intake reduction 24–48 h” value worked out at 4 ± 5%.
Turning to `CC[C@H](C)[C@H](NC(=O)[C@@H]1CCCN1C(=O)CNC(=O)[C@H](Cc1ccccc1)NC(=O)[C@H](CC(N)=O)NC(=O)[C@@H]1CCCN1C(=O)[C@H](CO)NC(=O)[C@H](CO)NC(=O)[C@H](Cc1c[nH]cn1)NC(=O)[C@H](CCCNC(=N)N)NC(=O)[C@H](CC(C)C)NC(=O)[C@H](Cc1ccccc1)NC(=O)[C@H](CC(=O)O)NC(=O)[C@H](C)NC(=O)[C@H](CC(C)C)NC(=O)[C@H](CCCNC(=N)N)NC(=O)[C@H](CCC(N)=O)NC(=O)[C@@H](NC(=O)[C@H](C)NC(=O)[C@@H]1CSSC[C@H](NC(=O)[C@@H](N)CCCCNC(=O)CC[C@H](NC(=O)CC[C@H](NC(=O)CCCCCCCCCCCCCCCCCCC(=O)O)C(=O)O)C(=O)O)C(=O)N[C@@H](CC(N)=O)C(=O)N[C@@H]([C@@H](C)O)C(=O)N[C@@H](C)C(=O)N[C@@H]([C@@H](C)O)C(=O)N1)[C@@H](C)O)C(=O)N[C@@H](CC(C)C)C(=O)N[C@@H](CO)C(=O)N[C@@H](CO)C(=O)N[C@H](C(=O)N[C@@H](CC(N)=O)C(=O)N[C@H](C(=O)NCC(=O)N[C@@H](CO)C(=O)N[C@@H](CC(=O)O)C(=O)N[C@H](C(=O)N[C@@H](Cc1ccc(O)cc1)C(N)=O)[C@@H](C)O)C(C)C)[C@@H](C)O` [Peptide 3] (H-K([γGlu-γGlu-C20 diacid])CNTATCATQRLADFLRHSSPNFGPILSSTNVGSDTY-NH2; disulfide 2-7), the IC50 was 4.68 nM at rAMY3R (SPA binding assay, Tables S13 and S15, read-out: rAMY3R pIC50 (converted)); 4.69 nM on rAMY3R (setting [2]); 5.13 nM at hAMY3R (SPA binding assay, Tables S13 and S15, read-out: hAMY3R pIC50 (converted)); 5.09 nM at hAMY3R (setting [3]). Further, the “ratio rCTR/rAMY3R” value at rAMY3R was 76. The “ratio hCTR/hAMY3R” value at hAMY3R was 14.
